Measured values as given in paper PMC8151276, “An Integrated Approach toward NanoBRET Tracers for Analysis of GPCR Ligand Engagement” (Molecules, 2021).

Tests used:
Type in all cases: binding
TACR3 = molecular target: T1, TACR3 (Homo sapiens, UniProt P29371); test: NanoBRET screen HiBiT-TACR3 in HEK293
T1 construct: purchased Promega (in-house HiBiT-GPCR construct library, NanoBRET)
T1 sequence (P29371 1-465): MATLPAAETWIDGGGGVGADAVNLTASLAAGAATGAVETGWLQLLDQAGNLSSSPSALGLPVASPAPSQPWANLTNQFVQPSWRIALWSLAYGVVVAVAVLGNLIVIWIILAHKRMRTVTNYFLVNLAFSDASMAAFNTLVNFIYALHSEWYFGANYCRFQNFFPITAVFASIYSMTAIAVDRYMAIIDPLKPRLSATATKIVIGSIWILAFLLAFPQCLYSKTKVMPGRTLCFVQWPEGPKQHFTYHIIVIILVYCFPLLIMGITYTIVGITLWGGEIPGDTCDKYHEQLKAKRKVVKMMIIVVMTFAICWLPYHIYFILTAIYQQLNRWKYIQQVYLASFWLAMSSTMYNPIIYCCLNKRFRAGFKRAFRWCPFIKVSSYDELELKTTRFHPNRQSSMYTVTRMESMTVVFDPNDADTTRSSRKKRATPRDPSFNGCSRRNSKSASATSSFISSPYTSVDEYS
Procedure: (§1) Each tracer candidate was screened across the entire library of HiBiT-GPCR constructs using NanoBRET as the detection modality. As depicted in Figure 4A, the specificity of interactions was evaluated through decrease in BRET due to competitive displacement of a bound tracer by excess parental compound. Each tracer was analyzed for binding to each HiBiT-GPCR fusion in the absence and in the presence of competing parental compound. Briefly, HEK293 cells were transfected with HiBiT-GPCR constructs diluted into promoterless DNA to reduce expression and maximize translocation to the cell surface. Each tracer candidate was then screened at concentrations of 1 μM and 0.1 μM across cells expressing these fusions. Cells were treated for 1.5 h with tracer either alone or in the presence of 20 μM competing parental compound (i.e., control). BRET was measured upon addition of purified LgBiT and subsequent complementation with HiBiT genetically fused to a GPCR. The specificity of interactions was assessed through a decrease in BRET signal due to competitive displacement of the bound tracer. To further gauge the robustness of these interactions, the fold response over the control (i.e., BRETtracer/BRETcontrol) was calculated. We chose a 1.5-fold response, which translates to ≥7-fold signal over noise as the minimal threshold required to score an interaction as positive. […]. Below we highlight the screening results obtained for our exemplary fluorescent tracers based on Clozapine, Amitriptyline and AZD1283.
(§2) HiBiT-GPCR DNA constructs were diluted in 10 mM Tris pH 8 to a final concentration of 0.01 μg/μL, arrayed in 96-well plates and stored at −20 °C. For transfection, HEK293 cells were suspended in Opti-MEM (without phenol red) supplemented with 2% fetal bovine serum (Seradigm) and 100 units/mL penicillin–streptomycin (Gibco) at a final concentration of 220,000 cells/mL and dispensed into white 96-well plates at 90 μL/well. Subsequent transfections and screens were carried using an Agilent Bravo Automated Liquid Handling Platform. First, the 96-well HiBiT DNA arrays were diluted 25-fold in Opti-MEM (without serum or phenol red) to a final concentration of 0.0004 μg/μL and 20 μL of the diluted DNAs were transferred into new 96-well plates. Next, promoterless carrier DNA (1 μg/μL) was diluted 25-fold (0.04 μg/μL) and then dispensed into the diluted arrays at 20 μL/well. Following brief mixing, Viafect transfection reagent (Promega) diluted 16-fold into Opti-MEM was dispensed into the plates at 40 μL/well. After mixing by pipetting, plates were incubated for 10 min on the pipetting station deck. The DNA-transfection reagent complexes were then added to plates containing cells. To facilitate the screen, 10 μL of DNA-transfection reagent complexes were added in duplicates to the top 4 and bottom 4 rows, resulting in two identical 48-well arrays per plate. Plates with transfected cells were incubated for 18–20 h at 37 °C/5% CO2. A screen of each tracer across the entire library using two different concentrations requires duplicate plates of transfected cells. Depending on the number of tracers being screened, transfections can be scaled up using the same ratios. The next day, for each tracer, four 20× screening solutions in tracer dilution buffer (Promega) were prepared: two duplicates at final concentration of 20 μM and two duplicates at a final concentration of 2 μM. A competing unmodified compound was added to one of each duplicate at a final concentration of 400 μM. The four resulting solutions were diluted 4-fold in Opti-MEM without serum or phenol red to generate 5× solutions (5 µM and 0.5 µM tracer +/− 100 μM competing compound). To screen the library, a BioTek MultiFlo FX liquid dispenser was used to dispense 22.5 µL of tracer solution to the top 4 rows and 22.5 µL tracer + competing compound solution to the 4 bottom rows. Plates were briefly mixed on an orbital shaker and incubated for 1.5 h at room temperature. […]

HTR4 = molecular target: T2, HTR4 (Homo sapiens, UniProt Q13639); test: NanoBRET screen HiBiT-HTR4 in HEK293
T2 construct: purchased Promega (in-house HiBiT-GPCR construct library, NanoBRET)
T2 sequence (Q13639 whole entry): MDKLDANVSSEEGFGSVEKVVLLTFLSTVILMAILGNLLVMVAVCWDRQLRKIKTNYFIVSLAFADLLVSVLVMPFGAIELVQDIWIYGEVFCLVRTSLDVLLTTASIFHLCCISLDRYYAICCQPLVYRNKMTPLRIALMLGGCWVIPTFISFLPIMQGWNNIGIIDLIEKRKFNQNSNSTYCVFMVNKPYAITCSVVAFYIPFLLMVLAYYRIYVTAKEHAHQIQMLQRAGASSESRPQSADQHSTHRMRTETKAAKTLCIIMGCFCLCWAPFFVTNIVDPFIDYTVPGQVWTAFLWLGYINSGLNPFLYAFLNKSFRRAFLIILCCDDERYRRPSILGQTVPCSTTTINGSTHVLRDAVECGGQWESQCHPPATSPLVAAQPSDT
Procedure: as §1, §2

C5AR2 = molecular target: T3, C5AR2 (Homo sapiens, UniProt Q9P296); test: NanoBRET screen HiBiT-C5AR2 in HEK293
T3 construct: purchased Promega (in-house HiBiT-GPCR construct library, NanoBRET)
T3 sequence (Q9P296 whole entry): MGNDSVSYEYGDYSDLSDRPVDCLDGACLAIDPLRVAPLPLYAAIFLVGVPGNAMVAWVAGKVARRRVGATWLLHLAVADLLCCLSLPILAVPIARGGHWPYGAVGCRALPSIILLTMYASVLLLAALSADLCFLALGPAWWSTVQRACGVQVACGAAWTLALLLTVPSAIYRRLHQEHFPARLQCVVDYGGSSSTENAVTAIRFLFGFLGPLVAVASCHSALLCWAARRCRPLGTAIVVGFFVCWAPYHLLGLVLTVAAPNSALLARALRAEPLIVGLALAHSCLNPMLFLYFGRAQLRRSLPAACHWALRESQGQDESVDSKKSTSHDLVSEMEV
Procedure: as §1, §2

CXCR2 = molecular target: T4, CXCR2 (Homo sapiens, UniProt P25025); test: NanoBRET screen HiBiT-CXCR2 in HEK293
T4 construct: purchased Promega (in-house HiBiT-GPCR construct library, NanoBRET)
T4 sequence (P25025 1-360): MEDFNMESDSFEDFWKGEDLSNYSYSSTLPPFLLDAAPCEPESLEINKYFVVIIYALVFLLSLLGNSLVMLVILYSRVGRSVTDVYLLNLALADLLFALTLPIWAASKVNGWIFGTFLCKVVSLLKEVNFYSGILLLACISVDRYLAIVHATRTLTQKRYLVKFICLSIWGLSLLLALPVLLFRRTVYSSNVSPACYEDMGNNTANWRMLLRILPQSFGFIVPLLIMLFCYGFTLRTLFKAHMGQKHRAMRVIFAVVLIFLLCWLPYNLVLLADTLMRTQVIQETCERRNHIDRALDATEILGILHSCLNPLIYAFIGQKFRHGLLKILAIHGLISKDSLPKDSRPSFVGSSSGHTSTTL
Procedure: as §1, §2

FZD1 = molecular target: T5, FZD1 (Homo sapiens, UniProt Q9UP38); test: NanoBRET screen HiBiT-FZD1 in HEK293
T5 construct: purchased Promega (in-house HiBiT-GPCR construct library, NanoBRET)
T5 sequence (Q9UP38 70-647): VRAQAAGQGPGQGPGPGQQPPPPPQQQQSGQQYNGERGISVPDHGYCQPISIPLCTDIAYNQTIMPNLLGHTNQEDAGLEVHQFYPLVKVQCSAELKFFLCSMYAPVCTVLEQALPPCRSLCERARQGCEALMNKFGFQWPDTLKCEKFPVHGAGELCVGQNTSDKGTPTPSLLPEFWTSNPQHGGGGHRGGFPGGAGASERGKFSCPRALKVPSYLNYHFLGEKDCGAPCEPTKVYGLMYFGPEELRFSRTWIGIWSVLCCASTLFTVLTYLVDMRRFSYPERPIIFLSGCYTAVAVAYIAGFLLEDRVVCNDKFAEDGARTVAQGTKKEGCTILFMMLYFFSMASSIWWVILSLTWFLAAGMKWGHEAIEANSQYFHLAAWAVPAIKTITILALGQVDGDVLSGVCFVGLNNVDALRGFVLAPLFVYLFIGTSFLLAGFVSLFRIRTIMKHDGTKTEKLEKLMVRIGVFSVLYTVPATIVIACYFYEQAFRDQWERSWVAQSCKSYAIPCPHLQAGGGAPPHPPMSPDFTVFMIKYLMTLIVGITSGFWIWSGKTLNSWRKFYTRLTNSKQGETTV
Procedure: as §1, §2

[1] = tracer at 1μM, listed as amitriptyline-b-2-NB590
[2] = tracer at 0.1μM, listed as amitriptyline-b-2-NB590

CCOC(=O)c1cc(C#N)c(N2CCC(C(=O)NS(=O)(=O)Cc3ccccc3/C=C/C(=O)NCCNC(=O)CCc3ccc4n3[B-](F)(F)[N+]3=C(c5ccc[nH]5)C=CC3=C4)CC2)nc1C [AZD1283-1-NB590]
NanoBRET Fold Response (TACR3; TACR3, 0.1μM): 1.10
NanoBRET Fold Response (TACR3; TACR3, 1μM): 1.10
NanoBRET Fold Response (HTR4; HTR4, 0.1μM): 1.01
NanoBRET Fold Response (HTR4; HTR4, 1μM): 1.00
NanoBRET Fold Response (C5AR2; C5AR2, 0.1μM): 0.97
NanoBRET Fold Response (C5AR2; C5AR2, 1μM): 1.12
NanoBRET Fold Response (CXCR2; CXCR2, 0.1μM): 0.99
NanoBRET Fold Response (CXCR2; CXCR2, 1μM): 1.03
NanoBRET Fold Response (FZD1; FZD1, 0.1μM): 1.06
NanoBRET Fold Response (FZD1; FZD1, 1μM): 1.07

N#CN/C(=N\CCNC(=O)c1ccc(N)cc1)NCCCOc1cccc(CN2CCCCC2)c1 [Aminopotentidine (unmodified)]
NanoBRET Fold Response (HTR4; HTR4, other tracers/Aminopotentidine (unmodified), 0.1μM): 1.01
NanoBRET Fold Response (HTR4; HTR4, other tracers/Aminopotentidine (unmodified), 1μM): 1.19

N#CN=C(NCCCOc1cccc(CN2CCCCC2)c1)NCCNC(=O)CCOCCOCCOCCOCCNC(=O)CCc1ccc2n1[B-](F)(F)[N+]1=C(c3ccc[nH]3)C=CC1=C2 [Aminopotentidine-2-NB590]
NanoBRET Fold Response (TACR3; TACR3, tracer 0.1μM): 1.06
NanoBRET Fold Response (TACR3; TACR3, tracer 1μM): 1.06
NanoBRET Fold Response (HTR4; HTR4, tracer 0.1μM): 0.97
NanoBRET Fold Response (HTR4; HTR4, tracer 1μM): 1.05
NanoBRET Fold Response (C5AR2; C5AR2, tracer 0.1μM): 1.06
NanoBRET Fold Response (C5AR2; C5AR2, tracer 1μM): 1.03
NanoBRET Fold Response (CXCR2; CXCR2, tracer 0.1μM): 0.90
NanoBRET Fold Response (CXCR2; CXCR2, tracer 1μM): 0.95
NanoBRET Fold Response (FZD1; FZD1, tracer 0.1μM): 1.07
NanoBRET Fold Response (FZD1; FZD1, tracer 1μM): 1.12

CN(C)CCC=C1c2ccccc2CCc2ccc(C(=O)NCCNC(=O)CCOCCOCCOCCOCCNC(=O)CCc3ccc4n3[B-](F)(F)[N+]3=C(c5ccc[nH]5)C=CC3=C4)cc21 [Amitriptyline-a-2-NB590]
NanoBRET Fold Response (TACR3; tracer at 1μM): 1.03
NanoBRET Fold Response (C5AR2; tracer at 0.1μM): 1.11
NanoBRET Fold Response (C5AR2; tracer at 1μM): 1.01
NanoBRET Fold Response (CXCR2; tracer at 0.1μM): 0.99
NanoBRET Fold Response (CXCR2; tracer at 1μM): 1.00
NanoBRET Fold Response (FZD1; tracer at 0.1μM): 0.92
NanoBRET Fold Response (FZD1; tracer at 1μM): 0.98

CN(C)CCC=C1c2ccccc2CCc2ccc(C(=O)NCCNC(=O)CCOCCOCCOCCOCCNC(=O)CCc3ccc4n3[B-](F)(F)[N+]3=C(c5ccc[nH]5)C=CC3=C4)cc21 [Amitriptyline-b-2-NB590]
NanoBRET Fold Response (TACR3; [1]): 0.97
NanoBRET Fold Response (HTR4; tracer at 0.1μM): 1.03
NanoBRET Fold Response (HTR4; tracer at 1μM): 1.09
NanoBRET Fold Response (CXCR2; [2]): 0.97
NanoBRET Fold Response (CXCR2; [1]): 0.83
NanoBRET Fold Response (FZD1; [2]): 0.97
NanoBRET Fold Response (FZD1; [1]): 1.14
